The results in this text go back to patent publication US7612081B2 (priority 2003, dated 2009).

Data set [1] deals with Saccharomyces cerevisiae yeast strain EKY3 (top1Δ), YCpGAL1-hTOP1G363C. Put plainly: Yeast in-vivo spot test, G363C mutant. It is filed as cell-based. Particulars: 45 μM. The source says: (§1) To identify camptothecin derivatives that overcome the resistance to camptothecin induced by point mutations on topisomerase I DNA in the Saccharomyces cerevisiae yeast model, an in-vivo and an in-vitro system were used in parallel.
(§2) A number of mutations are present close to the active site of the enzyme (tyrosine 723) and others around position 363 which corresponds to a very well conserved region.
(§3) Before effecting the transformation of the yeasts, the yeasts were unfrozen and plated with a sterile bent glass rod in 90-mm plates containing sterile solid YPDa medium (10 g of yeast extract, 20 g of peptone, 20 g of dextrose, 0.7 g of adenine, 20 g of glucose, 20 g of agar per liter). Colonies formed after 48-72 hours in an incubator at 30° C.
(§4) One day before the transformation, a single yeast colony sample was taken with a sterile Gilson tip and inoculated in 5 ml of sterile liquid YPDA medium (the above-mentioned medium without agar). […]
(§5) Before treating the yeasts with the camptothecin derivatives (in-vivo spot test), the transformed colonies were inoculated with a Gilson tip in 5 ml sterile liquid CM medium. […] On the day after, the optical density of the colonies was measured at 600 nm and a dilution of the colonies was performed in order to obtain an optical density of 0.3. […] The colonies were incubated at 30° C. for 48-72 hours and analysed macroscopically.

The test system of data set [2] is Saccharomyces cerevisiae yeast strain EKY3 (top1Δ), YCpGAL-1hTOP1A653P. Nature of the data set: Yeast in-vivo spot test, A653P mutant. It counts as cell-based. Particulars: 45 μM.
Description: as §1, §2, §3, §4, §5

Data set [3] relates to NCl—H460 non-microcytoma lung cancer cells. Put plainly: Cytotoxic activity on NCl—H460 cells (sulforodamine B). Particulars: for IC50: read-out: IC50 (product concentration that inhibits cell survival by 50%), 2 hours exposure, 72 hours recovery, mean ± SD.
Description: NCl—H460 non-microcytoma lung cancer cells were kept in RPMI 1640 culture medium containing 10% FCS and 1% glutamine. The cytotoxicity test to analyse the activity of the molecules was performed as follows. The cells were seeded in a volume of 250 μl in 96-well plates and incubated for 2 hours at 37° C. with scalar concentrations of the products in a humidified atmosphere containing 5% CO2. At the end of the incubation, the molecules were removed by overturning the plates and adding sterile buffered saline solution (PBS) three times. The RPMI 1640 culture medium containing 10% FCS (200 μl) was added to the wells and the plates were incubated for another 72 hours. At the end of the incubation, the plates were overturned again and dried on paper, before adding 200 μl of PBS and 50 μl of 80% TCA. The plates were incubated again in ice for at least 1 hour. The TCA was removed by overturning the plates and the plates were first dried on paper and then washed three times by immersion in distilled water and overturning. The plates were dried first on paper and then in a thermostatically regulated incubator at 60° C. for 10 min. 200 μl of 0.4% sulforodamine B in 1% acetic acid were added to all wells. The plates were incubated at room temperature for another 30 min. The sulforodamine B was removed by overturning, the plates were washed by immersion in 1% acetic acid three times and then dried first on blotting paper and then in the thermostat at 60° C. for 10 min. Lastly, 200 μl of Tris base 10 mM were added to all wells and the plates were subjected to stirring for at least 20 min. The optical density was measured with a Multiskan spectrophotometer at 540 nm.
For data set [4], the system named is Saccharomyces cerevisiae yeast strain EKY3 (top1Δ), Topoisomerase I wild-type (TOP1). Nature of the data set: Yeast in-vivo spot test, wild-type TOP1. It counts as cell-based. Particulars: 45 μM.
Description: One day before the transformation, a single yeast colony sample was taken with a sterile Gilson tip and inoculated in 5 ml of sterile liquid YPDA medium (the above-mentioned medium without agar). The colony was grown overnight under stirring at 30° C. […]
Data set [5] relates to Saccharomyces cerevisiae yeast strain EKY3 (top1Δ), YCpGAL1-hTOP1K720E. Put plainly: Yeast in-vivo spot test, K720E mutant. It is filed as cell-based. Particulars: 45 μM.
Description: as §1, §2, §3, §4, §5

The test system of data set [6] is MKN-28 human gastric carcinoma. Particulars: for LCK (1000 mm^3) (log cell kill): q4dx4; for TVI % (tumor volume inhibition): q4dx4, 20 days after last treatment. The procedure: Tumor fragments were inoculated on both flanks at day 0. Treatment started when tumors were just palpable. The molecule was given by oral route and intravenously according to the schedule q4d×4. During the treatment, animals were inspected every day for mortality. Physical appearance, behavior and general and local clinical signs of the mice will be observed daily. Any deviation from normality was recorded. All animals were weighed during the whole treatment period, in order to calculate the percent body weight loss due to the treatment.
Tumor volume inhibition % in treated over control tumors was evaluated 20 days after last treatment. To determine the antitumor activity of the drug, tumor diameters was measured biweekly with a Vernier caliper. The formula TV (mm^3)=[length (mm)×width (mm)^2]/2 was used, where the width and the length are the shortest and the longest diameters of each tumor, respectively.
When tumors reached a weight of about 2 g, the mice were sacrificed by cervical dislocation. LCK (log cell kill) as index of efficacy was calculated to evaluate the persistence of the effect of the molecule at the end of the treatment.

Like-named read-outs stand apart in the source and are kept apart here. A value given as a limit tells only on which side of the number the result lay.

With “7-[(N′, N″-tert-butoxycarbonyl)-spermidine-imino-methyl]-20S-camptothecin [ST2598]”, the “Phenotype of mutated enzyme G363C towards the derivative” value in data set [1] is “resistant”. Besides, the “Phenotype of mutated enzyme A653P towards the derivative” value in data set [2] was “resistant”. In data set [3], the “Cytotoxicity on the lung cancer line (in words)” value was “very potent cytotoxicity” and the IC50 stood at 15 ± 2 nM. Further, in data set [4], the “Phenotype of Topoisomerase I wild-type towards the derivative” value was “sensitivity”.

Regarding “7-[(N′,N″,N′″-tert-butoxycarbonyl)-spermine-imino-methyl]-20S-camptothecin [ST2544]”, the “Phenotype of K720E mutant towards the derivative” value in data set [5] was “sensitivity”. Moreover, in data set [1], the “Phenotype of mutated enzyme G363C towards the derivative” value is recorded as “resistant”. The “Phenotype of mutated enzyme A653P towards the derivative” value in data set [2] is given as “resistant”. Besides, the “LCK (1000 mm^3) (log cell kill)” value in data set [6] (iv, 1 mg/kg) is 0.2; in data set [6] (iv, 2 mg/kg), 0.2; in data set [6] (iv, 4 mg/kg), 0.8; in data set [6] (p.o., 1 mg/kg), 0.1; in data set [6] (p.o., 2 mg/kg), 0.5. The “TVI % (tumor volume inhibition)” value in data set [6] (iv, 1 mg/kg) was determined as 34%; in data set [6] (iv, 2 mg/kg), 36%; in data set [6] (iv, 4 mg/kg), 66%; in data set [6] (p.o., 1 mg/kg), 28%; in data set [6] (p.o., 2 mg/kg, 2 mg/kg), 62%; in data set [6] (p.o., 4 mg/kg, 4 mg/kg) it was 72%. For the same molecule, the IC50 in data set [3] came out at 12.9 ± 1.8 nM. Moreover, in data set [4], the “Phenotype of Topoisomerase I wild-type towards the derivative” value is “sensitivity”.

For “7-[(N′,N″-Di-benzyloxycarbonyl)-spermidineiminomethyl]-20S-camptothecin [ST2729]”, in data set [3], the IC50 stood at 34 ± 7 nM.

Regarding “7-[N-(N′-tert-butoxcarbonyl)-putrescinimino-methyl]-20S-camptothecin [ST2615]”, the IC50 in data set [3] was greater than 200 nM.

Consider `CCC1(O)C(=O)OCc2c1cc1n(c2=O)Cc2c-1nc1ccccc1c2C=NOCCCNC(=O)OC(C)(C)C` (stereo not drawn) [ST2664, 7-[3-(N-tert-butoxycarbonyl)-amino-1-propoxyiminomethyl]20S-camptothecin], for which the IC50 in data set [3] was greater than 200 nM.

In the case of `CC[C@@]1(O)C(=O)OCc2c1cc1n(c2=O)Cc2c-1nc1ccccc1c2C=NCC1CCN(C(=O)OC(C)(C)C)CC1` [ST2665], the IC50 in data set [3] was greater than 200 nM.

For the molecule `CCC1(O)C(=O)OCc2c1cc1n(c2=O)Cc2c-1nc1ccccc1c2C=NOCCCN(CCCCNC(=O)OC(C)(C)C)C(=O)OC(C)(C)C` (centres unmarked) [ST2872], the IC50 in data set [3] is greater than 200 nM.
